Consider seven molecules from BigSolDB 2.1.

The conditions of this series: 298.15 K.

As to `COc1ccc2c(c1)c(CC(=O)O)c(C)n2C(=O)c1ccc(Cl)cc1`, the solubility (mole fraction) reads like this: (in acetone) 0.0234; (in acetonitrile) 0.00239; (in chlorobenzene) 0.0023; (in chloroform) 0.00876; (in cyclohexane) 1.87e-05; (in ethanol) 0.00441. In addition, the solubility (mole fraction) worked out at 0.0111 (in ethyl acetate); 0.000509 (in ethylene glycol); 0.00465 (in isopropanol); 0.00228 (in methanol); 6.13e-07 (in n-heptane); 4.84e-07 (in n-hexane). The solubility (mole fraction) runs as follows: (in n-pentane) 3.31e-07; (in n-propanol) 0.00433; (in tetrachloromethane) 4.2e-05; (in toluene) 0.000908.
In turn, `c1ccc2cc3ccccc3cc2c1` yielded a solubility (mole fraction) (in acetone) of 0.00318; a solubility (mole fraction) (in acetonitrile) of 0.000765; a solubility (mole fraction) (in chlorobenzene) of 0.00946; a solubility (mole fraction) (in chloroform) of 0.00995; a solubility (mole fraction) (in ethanol) of 0.000428; a solubility (mole fraction) (in n-hexane) of 0.0012. Under “in tetrachloromethane”, the solubility (mole fraction) was 0.00481.
Consider `c1ccc2cc3cc4ccccc4cc3cc2c1`, for which the solubility (mole fraction) by setting is: (in acetone) 3.27e-05; (in acetonitrile) 7.97e-06; (in chlorobenzene) 0.00014; (in chloroform) 0.000132; (in ethanol) 6.91e-06; (in n-hexane) 1.5e-05. Under “in tetrachloromethane”, this molecule came in with a solubility (mole fraction) of 4.61e-05.
On to `c1ccc2c(c1)c1ccccc1n2-c1ccc(-c2ccc(-n3c4ccccc4c4ccccc43)cc2)cc1`, for which the solubility (mole fraction) (in acetone) was 0.000153; the solubility (mole fraction) (in acetonitrile) is 7.54e-06; the solubility (mole fraction) (in chlorobenzene) is 0.00491; the solubility (mole fraction) (in chloroform) amounted to 0.0083; the solubility (mole fraction) (in ethanol) stood at 2.25e-06; the solubility (mole fraction) (in n-hexane) was 9.41e-06. This molecule also gave a solubility (mole fraction) (in tetrachloromethane) of 0.000997.
`c1cc2cccc3c4cccc5cccc(c(c1)c23)c54` had a solubility (mole fraction) (in acetone) of 0.000301; a solubility (mole fraction) (in acetonitrile) of 4.68e-05; a solubility (mole fraction) (in chlorobenzene) of 0.00177; a solubility (mole fraction) (in chloroform) of 0.00134; a solubility (mole fraction) (in ethanol) of 2.42e-05; a solubility (mole fraction) (in n-hexane) of 5.53e-05. Where the note is “in tetrachloromethane”, this molecule registered a solubility (mole fraction) of 0.000444.
Take `O=C(O)c1cccnc1Nc1cccc(C(F)(F)F)c1`: the solubility (mole fraction) by setting is: (in acetone) 0.0288; (in acetonitrile) 0.00131; (in chlorobenzene) 0.000297; (in chloroform) 0.00166; (in ethanol) 0.0138; (in n-hexane) 5.35e-06. This molecule returned a solubility (mole fraction) (in tetrachloromethane) of 7.06e-05.
On to `c1ccc(N(c2ccc(-c3ccc(N(c4ccccc4)c4cccc5ccccc45)cc3)cc2)c2cccc3ccccc23)cc1`, for which the solubility (mole fraction) by setting is: (in acetone) 2.11e-05; (in acetonitrile) 1.56e-06; (in chlorobenzene) 0.00131; (in chloroform) 0.00268; (in ethanol) 5.59e-07; (in n-hexane) 3.15e-06. The solubility (mole fraction) (in tetrachloromethane) was 0.000234.
